Values quoted from earlier work as cited in patent US20130022829A1, “OIL BORNE WOOD PRESERVING COMPOSITION FOR TREATMENT OF POLES, POSTS, PILING, CROSSTIES AND OTHER WOODED STRUCTURES” (Osmose, Inc., priority 2009, published 2013).

Tested on: Poria
Settings: background statement on copper soaps

Row | Compound | efficacy against copper tolerant fungi, e.g., Poria sp.
1 | CCCCC(CC)C(=O)[O-].CCCCC(CC)C(=O)[O-].[Cu+2] (centres unmarked) [Cu-octoate] | insufficient efficacy
2 | Cu-naphthenate | insufficient efficacy
